Data taken from patent US9085606B2, “Beta amino acid derivatives as integrin antagonists” (Saint Louis University, priority 2012, dated 2015).

Tests used:
[1] = target: T1, Recombinant human integrin α5β1 (Homo sapiens, UniProt P05556+P08648); experiment: Solid Phase Receptor Assay for α5β1 Function; details: binding to fibronectin-coated plate; read-out: α5β1 SPRA IC50
T1 construct: purchased R&D Systems 3230-A5
Method: Solid Phase Receptor Assay for α5β1 Function.
Wells were washed 3 times with 150 μL TBS+ and 150 μl of blocking buffer (TBS+ with 1% bovine serum albumin, Sigma A7906) were added. The plate was incubated for 1 hr at 37° C. and then washed 3× with TBS+ buffer. […] Compounds were diluted 1:100 into the integrin solution and then 50 μL added to empty wells of the washed fibronectin-coated plate according to a standard template with each sample repeated in triplicate. After incubation for two hours at room temperature, the plate was washed 3× with 150 μL of TBS+ buffer. To each well, 50 μL of biotinylated anti-α5 antibody (R&D Systems, BAF1864) at 0.5 ug/mL in TBS+/0.1% BSA were added and the plate covered and incubated for 1 hr at room temperature. After washing the plate 3× with 150 μL of TBS+ buffer, 50 μL of streptavidin-conjugated horseradish peroxidase (R&D Systems, DY998) diluted in TBS+ blocking buffer were added to the wells and the plate incubated for 20 min at room temperature. The plate was washed 3× with TBS+ buffer followed by 50 μL of room temperature TMB substrate (Sigma, T444) added to each well and the plate incubated for 20 min at room temperature. The reaction was optionally stopped with 25 μL of Stop Solution (Sigma S5689). Plates were read by colorimetric detection at 650 nm wavelength using a Tecan Safire II plate reader.

[2] = target: T2, Recombinant human integrin αvβ5 (Homo sapiens, UniProt P06756+P18084); experiment: Solid Phase Receptor Assay for αvβ5 Function; details: binding to vitronectin-coated plate; read-out: αvβ5 SPRA IC50
T2 construct: purchased R&D Systems 2528-AV
T2 sequence (P06756 31-992 limits assumed): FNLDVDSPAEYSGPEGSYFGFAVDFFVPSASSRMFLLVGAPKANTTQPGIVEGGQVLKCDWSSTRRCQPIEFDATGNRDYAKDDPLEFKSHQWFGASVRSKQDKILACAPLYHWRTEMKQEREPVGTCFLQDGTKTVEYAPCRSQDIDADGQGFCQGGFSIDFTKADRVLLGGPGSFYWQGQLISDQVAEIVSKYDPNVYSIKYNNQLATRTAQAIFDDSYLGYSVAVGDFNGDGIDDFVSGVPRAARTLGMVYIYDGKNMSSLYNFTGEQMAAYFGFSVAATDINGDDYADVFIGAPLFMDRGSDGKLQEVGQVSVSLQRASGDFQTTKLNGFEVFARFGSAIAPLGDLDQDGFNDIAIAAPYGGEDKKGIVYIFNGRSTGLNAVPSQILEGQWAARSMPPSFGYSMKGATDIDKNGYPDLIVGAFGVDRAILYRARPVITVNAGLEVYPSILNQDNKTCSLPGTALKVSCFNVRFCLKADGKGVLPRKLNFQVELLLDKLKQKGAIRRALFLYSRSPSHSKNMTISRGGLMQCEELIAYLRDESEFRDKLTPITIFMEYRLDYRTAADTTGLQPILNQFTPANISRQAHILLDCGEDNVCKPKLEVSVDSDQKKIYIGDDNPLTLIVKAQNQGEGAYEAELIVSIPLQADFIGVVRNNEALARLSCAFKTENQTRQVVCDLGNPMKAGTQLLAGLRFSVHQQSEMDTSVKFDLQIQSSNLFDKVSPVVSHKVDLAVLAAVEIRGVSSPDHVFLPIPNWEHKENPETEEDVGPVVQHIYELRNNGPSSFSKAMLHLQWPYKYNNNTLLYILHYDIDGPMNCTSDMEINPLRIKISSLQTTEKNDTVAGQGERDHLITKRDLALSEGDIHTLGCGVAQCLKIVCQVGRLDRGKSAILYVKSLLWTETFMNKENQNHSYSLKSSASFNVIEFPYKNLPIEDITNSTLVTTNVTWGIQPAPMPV
T2 sequence (P18084 24-719 limits assumed): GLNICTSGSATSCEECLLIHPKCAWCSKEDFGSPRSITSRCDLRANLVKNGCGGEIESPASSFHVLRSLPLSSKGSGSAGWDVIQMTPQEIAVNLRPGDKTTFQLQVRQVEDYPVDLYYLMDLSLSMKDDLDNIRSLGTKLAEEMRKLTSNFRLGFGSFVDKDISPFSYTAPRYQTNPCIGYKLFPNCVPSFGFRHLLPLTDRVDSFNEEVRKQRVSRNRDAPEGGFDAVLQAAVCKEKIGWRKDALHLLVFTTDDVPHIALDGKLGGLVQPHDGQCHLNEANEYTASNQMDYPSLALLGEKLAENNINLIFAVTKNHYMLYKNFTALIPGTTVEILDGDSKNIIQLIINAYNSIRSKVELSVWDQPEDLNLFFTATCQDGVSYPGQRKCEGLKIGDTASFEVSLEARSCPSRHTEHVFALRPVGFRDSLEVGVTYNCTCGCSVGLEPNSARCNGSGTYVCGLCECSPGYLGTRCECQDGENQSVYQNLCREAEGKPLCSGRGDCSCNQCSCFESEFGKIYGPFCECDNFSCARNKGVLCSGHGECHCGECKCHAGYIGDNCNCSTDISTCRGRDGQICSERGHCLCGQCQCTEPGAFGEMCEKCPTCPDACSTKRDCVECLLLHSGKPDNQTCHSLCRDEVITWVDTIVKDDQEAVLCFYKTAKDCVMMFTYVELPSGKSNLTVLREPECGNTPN
Method: Solid Phase Receptor Assay for αvβ5 Function.
(§1) Wells were washed 3 times with 150 μL TBS+ and 150 μL of blocking buffer (TBS+ with 1% bovine serum albumin, Sigma A7906) were added. The plate was incubated for 1 hr at 37° C. and then washed 3× with TBS+ buffer. […] Compounds were diluted 1:100 into the integrin solution and then 50 μL added to empty wells of the washed vitronectin-coated plate according to a standard template with each sample repeated in triplicate. After incubation for two hours at room temperature, the plate was washed 3× with 150 μL of TBS+ buffer. To each well, 50 μL of biotinylated anti-αv antibody (R&D Systems, BAF1219) at 0.5 μg/mL in TBS+/0.1% BSA at 0.5 μg/mL were added and the plate covered and incubated for 1 hr at room temperature. After washing the plate 3× with 150 μL of TBS+ buffer, 50 μL of streptavidin-conjugated horseradish peroxidase (R&D Systems DY998) diluted in TBS+ blocking buffer were added to the wells and the plate incubated for 20 min at room temperature. The plate was washed 3× with TBS+ buffer followed by 50 μL of TMB substrate (Sigma T4444) added to each well and the plate incubated for 20 min at room temperature. The reaction was optionally stopped with 25 μL of Stop Solution (Sigma S5689). Plates were read by colorimetric detection at 650 nm wavelength using a Tecan Safire II plate reader.

[3] = target: T3, Recombinant human integrin αvβ6 (Homo sapiens, UniProt P06756+P18564); experiment: Solid Phase Receptor Assay for αvβ6 Function; details: binding to LAP-coated plate; read-out: αvβ6 SPRA IC50
T3 construct: purchased R&D Systems 3817-AV
T3 sequence (P06756 31-992 limits assumed): as the sequence (P06756 31-992 limits assumed) above
T3 sequence (P18564 22-707 limits assumed): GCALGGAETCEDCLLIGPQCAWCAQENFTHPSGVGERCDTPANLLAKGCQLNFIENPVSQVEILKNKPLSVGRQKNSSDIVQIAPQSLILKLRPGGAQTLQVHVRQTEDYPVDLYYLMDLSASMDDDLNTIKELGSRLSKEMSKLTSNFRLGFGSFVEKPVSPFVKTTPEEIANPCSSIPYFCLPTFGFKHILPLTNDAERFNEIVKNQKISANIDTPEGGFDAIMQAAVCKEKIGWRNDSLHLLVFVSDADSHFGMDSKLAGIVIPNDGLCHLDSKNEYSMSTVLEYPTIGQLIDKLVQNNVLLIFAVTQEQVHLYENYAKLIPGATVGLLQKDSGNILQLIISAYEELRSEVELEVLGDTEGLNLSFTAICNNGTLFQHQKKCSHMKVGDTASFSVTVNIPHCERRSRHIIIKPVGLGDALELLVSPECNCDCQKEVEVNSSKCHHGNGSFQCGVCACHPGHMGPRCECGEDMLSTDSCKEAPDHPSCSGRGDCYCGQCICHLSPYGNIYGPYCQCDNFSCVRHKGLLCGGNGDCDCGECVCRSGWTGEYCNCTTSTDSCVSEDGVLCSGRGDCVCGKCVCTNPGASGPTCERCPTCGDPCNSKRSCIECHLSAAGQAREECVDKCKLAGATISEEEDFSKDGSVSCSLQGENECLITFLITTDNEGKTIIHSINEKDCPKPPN
Method: Solid Phase Receptor Assay for αvβ6 Function.
as §1, with “150 μL TBS+, and 150” for “150 μL TBS+ and 150”, “at 37° C., and then” for “at 37° C. and then”, “the washed LAP-coated plate according” for “the washed vitronectin-coated plate according”, “TBS+/0.1% BSA were added” for “TBS+/0.1% BSA at 0.5 μg/mL were added”, “the plate was covered and” for “the plate covered and”, “peroxidase (R&D Systems, DY998) diluted” for “peroxidase (R&D Systems DY998) diluted”

T1 sequence (P08648 42-995 limits assumed): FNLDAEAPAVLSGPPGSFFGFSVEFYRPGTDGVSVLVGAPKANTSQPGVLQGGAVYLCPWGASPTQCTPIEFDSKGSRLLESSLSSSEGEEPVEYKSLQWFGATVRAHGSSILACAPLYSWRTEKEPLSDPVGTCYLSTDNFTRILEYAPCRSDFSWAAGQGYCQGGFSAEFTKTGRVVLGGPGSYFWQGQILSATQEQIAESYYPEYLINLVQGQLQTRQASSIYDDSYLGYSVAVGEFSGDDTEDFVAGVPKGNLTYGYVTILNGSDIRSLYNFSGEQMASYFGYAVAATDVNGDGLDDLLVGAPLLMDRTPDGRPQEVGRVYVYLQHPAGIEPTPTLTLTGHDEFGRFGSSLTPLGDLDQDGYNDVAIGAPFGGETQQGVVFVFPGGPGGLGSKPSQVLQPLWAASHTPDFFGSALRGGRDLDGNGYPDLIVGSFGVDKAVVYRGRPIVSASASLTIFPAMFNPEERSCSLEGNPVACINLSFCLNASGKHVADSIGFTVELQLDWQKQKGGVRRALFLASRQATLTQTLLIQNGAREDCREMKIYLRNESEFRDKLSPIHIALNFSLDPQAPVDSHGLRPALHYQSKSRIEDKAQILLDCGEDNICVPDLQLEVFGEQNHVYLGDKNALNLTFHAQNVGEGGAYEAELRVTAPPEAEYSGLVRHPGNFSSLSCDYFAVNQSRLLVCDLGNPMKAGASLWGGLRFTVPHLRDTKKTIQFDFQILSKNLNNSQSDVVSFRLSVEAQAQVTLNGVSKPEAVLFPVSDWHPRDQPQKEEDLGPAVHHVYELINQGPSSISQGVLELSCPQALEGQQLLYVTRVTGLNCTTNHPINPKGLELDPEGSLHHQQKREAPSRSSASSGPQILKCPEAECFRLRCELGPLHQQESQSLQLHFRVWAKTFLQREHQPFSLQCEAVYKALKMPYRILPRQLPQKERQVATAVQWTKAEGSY
T1 sequence (P05556 21-728 limits assumed): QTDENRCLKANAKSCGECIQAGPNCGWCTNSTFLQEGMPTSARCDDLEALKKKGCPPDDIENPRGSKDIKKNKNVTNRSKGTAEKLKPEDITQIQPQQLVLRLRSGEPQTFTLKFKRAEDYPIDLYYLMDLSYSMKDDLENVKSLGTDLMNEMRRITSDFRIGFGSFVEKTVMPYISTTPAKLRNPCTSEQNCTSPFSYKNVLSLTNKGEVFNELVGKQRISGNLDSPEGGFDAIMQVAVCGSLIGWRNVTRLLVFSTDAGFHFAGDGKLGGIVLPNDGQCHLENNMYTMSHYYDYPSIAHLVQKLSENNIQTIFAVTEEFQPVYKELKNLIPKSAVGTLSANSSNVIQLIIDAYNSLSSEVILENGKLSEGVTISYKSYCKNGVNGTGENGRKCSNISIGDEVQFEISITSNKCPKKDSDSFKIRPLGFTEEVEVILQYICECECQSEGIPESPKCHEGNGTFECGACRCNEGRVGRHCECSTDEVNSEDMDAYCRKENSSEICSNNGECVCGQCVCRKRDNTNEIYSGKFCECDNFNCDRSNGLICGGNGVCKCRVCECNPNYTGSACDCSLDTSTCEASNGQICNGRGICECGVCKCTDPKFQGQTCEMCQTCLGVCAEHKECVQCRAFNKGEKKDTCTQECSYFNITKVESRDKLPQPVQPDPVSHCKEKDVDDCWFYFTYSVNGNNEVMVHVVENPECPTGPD

| SMILES | IC50 [1] | IC50 [2] | IC50 [3] |
| --- | --- | --- | --- |
| CC(O)(c1cc([C@H](CC(=O)O)NC(=O)CNC(=O)c2cc(O)cc(NC3=NCC(O)CN3)c2)cc(C(F)(F)F)c1)C(F)(F)F (stereo partly drawn) [Example 25, (3S)-3-(2-(3-hydroxy-5-((5-hydroxy-1,4,5,6-tetrahydropyrimidin-2-yl)amino)benzamido)acetamido)-3-(3-(1,1,1-trifluoro-2-hydroxypropan-2-yl)-5-(trifluoromethyl)phenyl)propanoic acid] | 0.4 nM | 1.3 nM | 0.4 nM |
| CC(O)(c1cc(Cl)cc([C@H](CC(=O)O)NC(=O)CNC(=O)c2cc(O)cc(NC3=NCC(O)CN3)c2)c1)C(F)(F)F (stereo partly drawn) [Example 23, (3S)-3-(3-chloro-5-(1,1,1-trifluoro-2-hydroxypropan-2-yl)phenyl)-3-(2-(3-hydroxy-5-((5-hydroxy-1,4,5,6-tetrahydropyrimidin-2-yl)amino)benzamido)acetamido)propanoic acid] | 0.3 nM | 0.5 nM | 0.4 nM |
| N#CC1(c2cc(Cl)cc([C@H](CC(=O)O)NC(=O)CNC(=O)c3cc(O)cc(NC4=NCC(O)CN4)c3)c2)CCOCC1 (stereo partly drawn) [Example 22, (3S)-3-(3-chloro-5-(4-cyanotetrahydro-2H-pyran-4-yl)phenyl)-3-(2-(3-hydroxy-5-((5-hydroxy-1,4,5,6-tetrahydropyrimidin-2-yl)amino)benzamido)acetamido)propanoic acid] | 0.3 nM | 0.4 nM | 0.3 nM |
| O=C(O)C[C@H](NC(=O)CNC(=O)c1cc(O)cc(NC2=NCC(O)CN2)c1)c1cc(Br)cc(C2(C(F)F)CC2)c1 (stereo partly drawn) [Example 26, (3S)-3-(3-bromo-5-(1-(difluoromethyl)cyclopropyl)phenyl)-3-(2-(3-hydroxy-5-((5-hydroxy-1,4,5,6-tetrahydropyrimidin-2-yl)amino)benzamido)acetamido)propanoic acid] | 0.1 nM | 0.5 nM | 0.1 nM |
| N#CC1(c2cc(Cl)cc([C@H](CC(=O)O)NC(=O)CNC(=O)c3cc(O)cc(NC4=NCC(O)CN4)c3)c2)CCC1 (stereo partly drawn) [Example 21, (3S)-3-(3-chloro-5-(1-cyanocyclobutyl)phenyl)-3-(2-(3-hydroxy-5-((5-hydroxy-1,4,5,6-tetrahydropyrimidin-2-yl)amino)benzamido)acetamido)propanoic acid] | 0.3 nM | 0.4 nM | 0.3 nM |
| CC(C)(c1cc(Cl)cc([C@H](CC(=O)O)NC(=O)CNC(=O)c2cc(O)cc(NC3=NCC(O)CN3)c2)c1)C(F)(F)F (stereo partly drawn) [Example 24, (3S)-3-(3-chloro-5-(1,1,1-trifluoro-2-methylpropan-2-yl)phenyl)-3-(2-(3-hydroxy-5-((5-hydroxy-1,4,5,6-tetrahydropyrimidin-2-yl)amino)benzamido)acetamido)propanoic acid] | 0.3 nM | 0.3 nM | 0.4 nM |
